Laboratory results reported in ChEMBL document CHEMBL1150509, “Cycloalkylpiperazines as HIV-1 protease inhibitors: enhanced oral absorption” (Bioorg Med Chem Lett, 1995).

Tests used:
[1] = tested on: Human immunodeficiency virus 1; assay: Tested in vitro against MT-4 human lymphoid cells infected with the type IIIb isolate; type: functional; conditions: Human immunodeficiency virus 1, lymphoid; read-out: CIC95
[2] = molecular target: Human immunodeficiency virus type 1 protease (Human immunodeficiency virus 1, UniProt Q72874); assay: Tested in vitro for the ability to inhibit HIV-1 protease
[3] = tested on: Human immunodeficiency virus 1; assay: Ratio of CIC95 to that of IC50 was determined; type: functional

| Compound | IC95 [1] | IC50 [2] | Ratio [3] |
| --- | --- | --- | --- |
| CC(C)[C@@H]1[C@H](OC(=O)N[C@@H](Cc2ccccc2)[C@H](O)CN2CCN(C3CCCCCC3)C[C@H]2C(=O)NC(C)(C)C)CCS1(=O)=O | 200 nM | – | – |
| CC(C)[C@@H]1[C@H](OC(=O)N[C@@H](Cc2ccccc2)[C@H](O)CN2CCN(C3CCC3)C[C@H]2C(=O)NC(C)(C)C)CCS1(=O)=O | 50 nM | – | – |
| CCCCCCCCN1CCN(C[C@@H](O)[C@H](Cc2ccccc2)NC(=O)O[C@@H]2CCS(=O)(=O)[C@@H]2C(C)C)[C@H](C(=O)NC(C)(C)C)C1 | 200 nM | – | – |
| CC(C)[C@@H]1[C@H](OC(=O)N[C@@H](Cc2ccccc2)[C@H](O)CN2CCN(C3CCSC3)C[C@H]2C(=O)NC(C)(C)C)CCS1(=O)=O (some centres not stated) | > 200 nM | 8.3 nM | – |
| CC(C)[C@@H]1[C@H](OC(=O)N[C@@H](Cc2ccccc2)[C@H](O)CN2CCN(C3CC(c4ccccc4)C3)C[C@H]2C(=O)NC(C)(C)C)CCS1(=O)=O (some centres not stated) | 100 nM | 3.8 nM | 26 |
| CC(C)[C@@H]1[C@H](OC(=O)N[C@@H](Cc2ccccc2)[C@H](O)CN2CCN(CC(C)(C)C)C[C@H]2C(=O)NC(C)(C)C)CCS1(=O)=O | 200 nM | – | – |
| CC(C)[C@@H]1[C@H](OC(=O)N[C@@H](Cc2ccccc2)[C@H](O)CN2CCN(C(C)C)C[C@H]2C(=O)NC(C)(C)C)CCS1(=O)=O | > 200 nM | – | – |
| CC(C)[C@@H]1[C@H](OC(=O)N[C@@H](Cc2ccccc2)[C@H](O)CN2CCN(C3CCOCC3)C[C@H]2C(=O)NC(C)(C)C)CCS1(=O)=O | > 200 nM | 34.6 nM | – |
| CC(C)[C@@H]1[C@H](OC(=O)N[C@@H](Cc2ccccc2)[C@H](O)CN2CCN(C3CC3)C[C@H]2C(=O)NC(C)(C)C)CCS1(=O)=O | 100 nM | – | – |
| CC(C)[C@@H]1[C@H](OC(=O)N[C@@H](Cc2ccccc2)[C@H](O)CN2CCN(C3CCSCC3)C[C@H]2C(=O)NC(C)(C)C)CCS1(=O)=O | 200 nM | – | – |
| CC(C)[C@@H]1[C@H](OC(=O)N[C@@H](Cc2ccccc2)[C@H](O)CN2CCN(C3CCCC3)C[C@H]2C(=O)NC(C)(C)C)CCS1(=O)=O | 150 nM | – | – |
| CCCN1CCN(C[C@@H](O)[C@H](Cc2ccccc2)NC(=O)O[C@@H]2CCS(=O)(=O)[C@@H]2C(C)C)[C@H](C(=O)NC(C)(C)C)C1 | 100 nM | – | – |
| CC(C)[C@@H]1[C@H](OC(=O)N[C@@H](Cc2ccccc2)[C@H](O)CN2CCN(C3Cc4ccccc4C3)C[C@H]2C(=O)NC(C)(C)C)CCS1(=O)=O | 100 nM | 5.3 nM | 19 |
| CC(C)CN1CCN(C[C@@H](O)[C@H](Cc2ccccc2)NC(=O)O[C@@H]2CCS(=O)(=O)[C@@H]2C(C)C)[C@H](C(=O)NC(C)(C)C)C1 | 100 nM | – | – |
| CCC(CC)N1CCN(C[C@@H](O)[C@H](Cc2ccccc2)NC(=O)O[C@@H]2CCS(=O)(=O)[C@@H]2C(C)C)[C@H](C(=O)NC(C)(C)C)C1 | > 200 nM | – | – |
| CC(C)[C@@H]1[C@H](OC(=O)N[C@@H](Cc2ccccc2)[C@H](O)CN2CCN(C3CCCCC3)C[C@H]2C(=O)NC(C)(C)C)CCS1(=O)=O | 200 nM | – | – |
